Assays:
[1] = molecular target: T1, FRK (Homo sapiens, UniProt P42685); assay: Off-chip Mobility Shift Assay, kinase inhibition; assay type: biochemical; conditions: recombinant FRK; for inhibition at 0.001 µM: at 1 nM; for inhibition at 0.01 µM: at 10 nM
T1 construct: purchased Carna Biosciences, Inc

[2] = molecular target: T2, SRC (Homo sapiens, UniProt P12931); assay: Off-chip Mobility Shift Assay, kinase inhibition; assay type: biochemical; conditions: recombinant SRC; for inhibition at 0.001 µM: at 1 nM; for inhibition at 0.01 µM: at 10 nM
T2 construct: purchased Carna Biosciences, Inc

[3] = tested on: SU-DHL-4; assay: Cell inhibition assay (PrestoBlue, 48 h); assay type: cell-based; conditions: Homo sapiens, SU-DHL-4, 48 h, SU-DHL-4 diffuse large B-cell lymphoma cells, read-out: IC50, inhibition of growth
[4] = molecular target: T3, PIK3CA/PIK3R1 (Homo sapiens, UniProt P42336); assay: Off-chip Mobility Shift Assay, kinase inhibition; assay type: biochemical; conditions: recombinant PIK3CA/PIK3R1; for inhibition at 0.01 µM: at 10 nM
T3 construct: purchased Carna Biosciences, Inc
T3 sequence (P42336 whole entry): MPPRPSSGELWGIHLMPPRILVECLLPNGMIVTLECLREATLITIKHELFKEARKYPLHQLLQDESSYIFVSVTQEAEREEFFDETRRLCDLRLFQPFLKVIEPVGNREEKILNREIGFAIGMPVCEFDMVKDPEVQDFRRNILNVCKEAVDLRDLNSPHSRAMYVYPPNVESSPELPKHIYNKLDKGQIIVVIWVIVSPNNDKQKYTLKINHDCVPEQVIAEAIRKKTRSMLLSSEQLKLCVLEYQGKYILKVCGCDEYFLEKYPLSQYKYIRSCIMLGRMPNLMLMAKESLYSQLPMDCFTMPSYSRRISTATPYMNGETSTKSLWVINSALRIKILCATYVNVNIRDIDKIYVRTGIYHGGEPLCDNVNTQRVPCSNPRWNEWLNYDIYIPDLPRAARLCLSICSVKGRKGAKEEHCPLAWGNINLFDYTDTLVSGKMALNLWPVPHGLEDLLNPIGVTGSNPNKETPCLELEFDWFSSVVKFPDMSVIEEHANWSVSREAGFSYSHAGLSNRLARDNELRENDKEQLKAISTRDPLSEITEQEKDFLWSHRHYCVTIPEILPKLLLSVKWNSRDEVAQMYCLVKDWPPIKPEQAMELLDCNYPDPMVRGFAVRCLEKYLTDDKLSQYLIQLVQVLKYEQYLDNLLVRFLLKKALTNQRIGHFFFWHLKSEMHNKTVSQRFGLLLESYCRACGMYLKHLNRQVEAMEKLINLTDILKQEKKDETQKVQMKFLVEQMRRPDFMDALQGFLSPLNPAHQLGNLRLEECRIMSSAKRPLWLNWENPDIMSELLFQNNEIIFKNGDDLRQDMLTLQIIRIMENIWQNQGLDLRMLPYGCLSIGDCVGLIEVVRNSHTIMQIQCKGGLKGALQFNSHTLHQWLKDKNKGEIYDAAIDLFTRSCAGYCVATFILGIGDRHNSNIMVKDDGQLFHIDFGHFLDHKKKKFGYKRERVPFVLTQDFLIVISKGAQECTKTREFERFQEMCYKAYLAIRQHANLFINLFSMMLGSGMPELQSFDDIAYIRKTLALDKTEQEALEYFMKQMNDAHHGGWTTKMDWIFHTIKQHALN
T3 sequence (P27986 whole entry partner): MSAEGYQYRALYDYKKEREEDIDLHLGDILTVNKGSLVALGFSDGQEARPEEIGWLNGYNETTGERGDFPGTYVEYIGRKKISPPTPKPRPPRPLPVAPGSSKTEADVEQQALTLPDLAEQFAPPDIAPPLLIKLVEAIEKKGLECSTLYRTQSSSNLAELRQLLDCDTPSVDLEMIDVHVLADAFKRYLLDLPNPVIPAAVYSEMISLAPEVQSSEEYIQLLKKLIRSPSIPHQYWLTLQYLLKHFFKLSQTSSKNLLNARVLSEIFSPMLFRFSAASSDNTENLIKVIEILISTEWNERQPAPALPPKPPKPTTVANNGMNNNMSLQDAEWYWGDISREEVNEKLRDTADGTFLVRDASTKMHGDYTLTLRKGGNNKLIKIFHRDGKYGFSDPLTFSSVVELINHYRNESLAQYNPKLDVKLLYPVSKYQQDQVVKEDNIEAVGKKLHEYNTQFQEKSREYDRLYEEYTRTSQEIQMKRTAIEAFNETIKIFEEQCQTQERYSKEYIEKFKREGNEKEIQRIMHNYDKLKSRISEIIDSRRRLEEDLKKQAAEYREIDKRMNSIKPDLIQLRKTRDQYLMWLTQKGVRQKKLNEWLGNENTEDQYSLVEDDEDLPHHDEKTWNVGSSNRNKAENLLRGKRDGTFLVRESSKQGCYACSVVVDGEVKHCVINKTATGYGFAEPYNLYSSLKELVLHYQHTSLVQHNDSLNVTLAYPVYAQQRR

[5] = molecular target: T4, FMS (Homo sapiens, UniProt P07333); assay: Off-chip Mobility Shift Assay, kinase inhibition; assay type: biochemical; conditions: recombinant FMS; for inhibition at 0.001 µM: at 1 nM; for inhibition at 0.01 µM: at 10 nM
T4 construct: purchased Carna Biosciences, Inc

[6] = molecular target: T5, FGR (Homo sapiens, UniProt P09769); assay: Off-chip Mobility Shift Assay, kinase inhibition; assay type: biochemical; conditions: recombinant FGR; for inhibition at 0.001 µM: at 1 nM; for inhibition at 0.01 µM: at 10 nM, read-out: inhibition
T5 construct: purchased Carna Biosciences, Inc
T5 sequence (P09769 whole entry): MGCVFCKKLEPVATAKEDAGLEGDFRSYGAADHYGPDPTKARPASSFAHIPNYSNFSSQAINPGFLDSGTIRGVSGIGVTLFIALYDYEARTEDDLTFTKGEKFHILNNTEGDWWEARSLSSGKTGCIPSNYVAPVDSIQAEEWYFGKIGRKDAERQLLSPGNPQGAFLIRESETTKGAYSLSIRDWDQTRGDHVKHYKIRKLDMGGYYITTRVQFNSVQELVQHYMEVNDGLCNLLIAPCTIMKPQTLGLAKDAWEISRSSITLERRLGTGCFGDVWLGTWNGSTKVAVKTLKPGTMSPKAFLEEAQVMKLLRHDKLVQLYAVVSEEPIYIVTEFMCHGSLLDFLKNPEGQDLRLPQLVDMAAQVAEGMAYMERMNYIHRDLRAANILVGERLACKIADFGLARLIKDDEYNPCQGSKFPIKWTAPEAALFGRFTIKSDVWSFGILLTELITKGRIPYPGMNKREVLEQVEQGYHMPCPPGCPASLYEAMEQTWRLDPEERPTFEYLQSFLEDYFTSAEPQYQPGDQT

[7] = molecular target: T6, LCK (Homo sapiens, UniProt P06239); assay: Off-chip Mobility Shift Assay, kinase inhibition; assay type: biochemical; conditions: recombinant LCK; for inhibition at 0.001 µM: at 1 nM; for inhibition at 0.01 µM: at 10 nM
T6 construct: purchased Carna Biosciences, Inc

[8] = molecular target: T7, EPHA1 (Homo sapiens, UniProt P21709); assay: Off-chip Mobility Shift Assay, kinase inhibition; assay type: biochemical; conditions: recombinant EPHA1; for inhibition at 0.001 µM: at 1 nM; for inhibition at 0.01 µM: at 10 nM
T7 construct: purchased Carna Biosciences, Inc
T7 sequence (P21709 26-976): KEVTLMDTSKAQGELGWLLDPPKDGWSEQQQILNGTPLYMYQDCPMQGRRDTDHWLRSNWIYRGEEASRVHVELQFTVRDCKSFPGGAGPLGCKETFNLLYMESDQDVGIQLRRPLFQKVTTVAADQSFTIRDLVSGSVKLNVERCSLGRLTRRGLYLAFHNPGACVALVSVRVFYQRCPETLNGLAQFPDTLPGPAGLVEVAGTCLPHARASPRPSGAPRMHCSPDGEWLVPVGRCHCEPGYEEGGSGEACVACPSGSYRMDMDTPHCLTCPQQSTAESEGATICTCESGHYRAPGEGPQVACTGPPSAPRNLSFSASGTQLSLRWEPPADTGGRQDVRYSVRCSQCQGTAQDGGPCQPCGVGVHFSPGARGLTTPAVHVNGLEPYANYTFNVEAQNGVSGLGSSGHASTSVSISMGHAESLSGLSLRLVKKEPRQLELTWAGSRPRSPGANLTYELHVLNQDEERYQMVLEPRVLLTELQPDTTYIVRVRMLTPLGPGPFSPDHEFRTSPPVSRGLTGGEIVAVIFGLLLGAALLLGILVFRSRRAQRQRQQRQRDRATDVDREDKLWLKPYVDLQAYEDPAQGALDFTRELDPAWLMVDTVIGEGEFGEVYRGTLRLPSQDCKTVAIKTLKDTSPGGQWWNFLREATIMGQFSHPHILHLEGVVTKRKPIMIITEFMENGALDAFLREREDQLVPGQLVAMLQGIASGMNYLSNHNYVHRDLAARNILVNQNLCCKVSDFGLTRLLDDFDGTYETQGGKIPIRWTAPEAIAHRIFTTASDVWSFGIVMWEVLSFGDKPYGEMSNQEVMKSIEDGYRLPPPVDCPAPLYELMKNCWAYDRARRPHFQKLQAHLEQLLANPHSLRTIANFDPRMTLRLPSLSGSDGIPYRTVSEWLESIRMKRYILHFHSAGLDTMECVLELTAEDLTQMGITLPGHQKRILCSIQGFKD

[9] = molecular target: T8, PDGFRβ (Homo sapiens, UniProt P09619); assay: Off-chip Mobility Shift Assay, kinase inhibition; assay type: biochemical; conditions: recombinant PDGFRβ; for inhibition at 0.001 µM: at 1 nM; for inhibition at 0.01 µM: at 10 nM, read-out: inhibition
T8 construct: purchased Carna Biosciences, Inc

[10] = molecular target: T9, ABL(E255K) (Homo sapiens, UniProt P00519, E255K); assay: Off-chip Mobility Shift Assay, kinase inhibition; assay type: biochemical; conditions: recombinant ABL(E255K); for inhibition at 0.001 µM: at 1 nM; for inhibition at 0.01 µM: at 10 nM
T9 construct: purchased Carna Biosciences, Inc

[11] = molecular target: T10, ARG (Homo sapiens, UniProt P42684); assay: Off-chip Mobility Shift Assay, kinase inhibition; assay type: biochemical; conditions: recombinant ARG; for inhibition at 0.01 µM: at 10 nM, read-out: inhibition
T10 construct: purchased Carna Biosciences, Inc
T10 sequence (P42684 whole entry): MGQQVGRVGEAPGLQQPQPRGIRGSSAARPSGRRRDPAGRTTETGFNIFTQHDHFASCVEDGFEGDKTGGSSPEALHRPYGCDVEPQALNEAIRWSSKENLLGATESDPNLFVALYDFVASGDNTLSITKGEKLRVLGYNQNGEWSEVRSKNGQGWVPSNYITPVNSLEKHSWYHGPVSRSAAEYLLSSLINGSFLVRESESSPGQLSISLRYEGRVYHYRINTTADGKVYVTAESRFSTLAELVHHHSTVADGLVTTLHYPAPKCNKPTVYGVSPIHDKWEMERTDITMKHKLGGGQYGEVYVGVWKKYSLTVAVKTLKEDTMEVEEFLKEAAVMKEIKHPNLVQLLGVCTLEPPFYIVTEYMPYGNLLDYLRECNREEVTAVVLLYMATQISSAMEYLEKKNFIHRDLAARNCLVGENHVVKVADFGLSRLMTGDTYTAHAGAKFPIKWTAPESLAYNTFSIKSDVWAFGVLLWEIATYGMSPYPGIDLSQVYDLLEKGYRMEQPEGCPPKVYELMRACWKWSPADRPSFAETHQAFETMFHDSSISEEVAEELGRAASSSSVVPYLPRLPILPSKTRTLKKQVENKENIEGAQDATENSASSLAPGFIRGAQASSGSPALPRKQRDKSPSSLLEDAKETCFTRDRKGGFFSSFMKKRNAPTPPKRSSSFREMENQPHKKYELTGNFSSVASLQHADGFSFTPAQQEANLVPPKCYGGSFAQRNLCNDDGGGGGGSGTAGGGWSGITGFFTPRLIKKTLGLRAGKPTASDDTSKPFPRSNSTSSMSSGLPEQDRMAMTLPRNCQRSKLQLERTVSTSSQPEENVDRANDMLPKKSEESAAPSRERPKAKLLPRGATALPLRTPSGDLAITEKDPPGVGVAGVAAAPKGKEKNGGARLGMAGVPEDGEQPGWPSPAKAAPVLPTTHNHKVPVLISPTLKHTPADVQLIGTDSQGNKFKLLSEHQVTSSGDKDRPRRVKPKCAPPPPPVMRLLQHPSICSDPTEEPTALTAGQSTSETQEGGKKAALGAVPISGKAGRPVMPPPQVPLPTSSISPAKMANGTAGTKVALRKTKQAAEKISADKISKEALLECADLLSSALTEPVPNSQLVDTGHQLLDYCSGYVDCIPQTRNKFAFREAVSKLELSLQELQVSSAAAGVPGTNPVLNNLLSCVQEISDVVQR

[12] = molecular target: T11, DDR2 (Homo sapiens, UniProt Q16832); assay: Off-chip Mobility Shift Assay, kinase inhibition; assay type: biochemical; conditions: recombinant DDR2; for inhibition at 0.01 µM: at 10 nM, read-out: inhibition
T11 construct: purchased Carna Biosciences, Inc
T11 sequence (Q16832 22-855): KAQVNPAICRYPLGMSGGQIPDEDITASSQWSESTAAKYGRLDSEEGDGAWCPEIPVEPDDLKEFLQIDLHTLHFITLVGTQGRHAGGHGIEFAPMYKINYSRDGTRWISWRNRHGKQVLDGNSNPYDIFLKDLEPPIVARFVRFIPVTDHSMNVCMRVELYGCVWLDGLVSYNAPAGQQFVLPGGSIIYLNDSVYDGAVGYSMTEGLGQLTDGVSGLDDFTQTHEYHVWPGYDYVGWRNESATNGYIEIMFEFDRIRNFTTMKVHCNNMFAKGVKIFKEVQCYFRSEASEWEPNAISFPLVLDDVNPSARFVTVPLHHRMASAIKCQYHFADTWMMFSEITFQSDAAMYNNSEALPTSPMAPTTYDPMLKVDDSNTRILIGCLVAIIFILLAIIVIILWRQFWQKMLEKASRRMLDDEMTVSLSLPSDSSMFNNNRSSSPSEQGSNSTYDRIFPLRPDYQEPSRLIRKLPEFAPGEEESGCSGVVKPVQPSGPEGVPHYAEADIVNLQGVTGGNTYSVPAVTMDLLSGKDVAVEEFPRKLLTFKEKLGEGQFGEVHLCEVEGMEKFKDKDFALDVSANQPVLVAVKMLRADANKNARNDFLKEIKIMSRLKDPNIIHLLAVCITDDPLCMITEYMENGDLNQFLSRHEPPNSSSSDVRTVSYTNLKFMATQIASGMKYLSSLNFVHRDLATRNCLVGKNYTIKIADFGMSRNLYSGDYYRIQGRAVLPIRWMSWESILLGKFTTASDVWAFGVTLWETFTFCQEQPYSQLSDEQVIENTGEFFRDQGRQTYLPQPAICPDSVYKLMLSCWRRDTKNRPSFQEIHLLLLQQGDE

[13] = molecular target: T12, HCK (Homo sapiens, UniProt P08631); assay: Off-chip Mobility Shift Assay, kinase inhibition; assay type: biochemical; conditions: recombinant HCK; for inhibition at 0.001 µM: at 1 nM; for inhibition at 0.01 µM: at 10 nM, read-out: inhibition
T12 construct: purchased Carna Biosciences, Inc

[14] = molecular target: T13, BTK (Homo sapiens, UniProt Q06187); assay: Off-chip Mobility Shift Assay, kinase inhibition; assay type: biochemical; conditions: recombinant BTK; for inhibition at 0.001 µM: at 1 nM; for inhibition at 0.01 µM: at 10 nM
T13 construct: purchased Carna Biosciences, Inc
T13 sequence (Q06187 whole entry): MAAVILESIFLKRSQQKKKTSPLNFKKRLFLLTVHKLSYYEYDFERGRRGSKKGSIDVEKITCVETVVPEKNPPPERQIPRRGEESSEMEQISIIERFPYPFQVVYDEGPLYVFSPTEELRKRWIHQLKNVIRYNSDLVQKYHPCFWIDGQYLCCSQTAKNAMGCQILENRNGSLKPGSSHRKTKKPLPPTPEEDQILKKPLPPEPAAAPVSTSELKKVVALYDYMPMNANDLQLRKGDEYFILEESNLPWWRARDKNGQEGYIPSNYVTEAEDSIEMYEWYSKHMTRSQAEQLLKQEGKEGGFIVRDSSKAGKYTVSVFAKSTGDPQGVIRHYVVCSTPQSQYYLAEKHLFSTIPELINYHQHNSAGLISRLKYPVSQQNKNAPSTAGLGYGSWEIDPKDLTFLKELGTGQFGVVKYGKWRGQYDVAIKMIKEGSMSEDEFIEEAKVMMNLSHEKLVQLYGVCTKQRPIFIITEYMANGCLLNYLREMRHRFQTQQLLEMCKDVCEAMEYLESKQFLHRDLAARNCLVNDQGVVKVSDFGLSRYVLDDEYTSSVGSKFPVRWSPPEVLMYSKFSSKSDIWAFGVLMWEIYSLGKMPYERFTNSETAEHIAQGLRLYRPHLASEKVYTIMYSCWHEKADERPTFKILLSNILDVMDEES

[15] = molecular target: T14, FYN(isoform a) (Homo sapiens, UniProt P06241); assay: Off-chip Mobility Shift Assay, kinase inhibition; assay type: biochemical; conditions: recombinant FYN(isoform a); for inhibition at 0.001 µM: at 1 nM; for inhibition at 0.01 µM: at 10 nM
T14 construct: purchased Carna Biosciences, Inc

T1 sequence (P42685 whole entry): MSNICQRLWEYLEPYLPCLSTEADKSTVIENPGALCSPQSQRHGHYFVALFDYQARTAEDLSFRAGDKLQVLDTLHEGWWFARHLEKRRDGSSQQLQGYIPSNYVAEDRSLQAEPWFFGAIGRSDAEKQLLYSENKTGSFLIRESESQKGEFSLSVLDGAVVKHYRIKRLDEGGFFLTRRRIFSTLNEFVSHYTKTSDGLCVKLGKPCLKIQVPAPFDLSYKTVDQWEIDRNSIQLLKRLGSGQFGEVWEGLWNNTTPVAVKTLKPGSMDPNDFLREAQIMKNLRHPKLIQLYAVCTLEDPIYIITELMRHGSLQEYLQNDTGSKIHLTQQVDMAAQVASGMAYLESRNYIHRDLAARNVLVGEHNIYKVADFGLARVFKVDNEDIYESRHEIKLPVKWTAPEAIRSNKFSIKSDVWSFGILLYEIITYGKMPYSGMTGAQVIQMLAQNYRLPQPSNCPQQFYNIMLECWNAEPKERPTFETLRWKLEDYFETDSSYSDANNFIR

With [2H]c1cc(C)c(NC(=O)c2cnc(Nc3cc(N4CCCCC4)nc(C)n3)s2)c(Cl)c1 [Compound I, N-(2-chloro-4-deuterio-6-methyl-phenyl)-2-[[2-methyl-6-(1-piperidyl)pyrimidin-4-yl]amino]thiazole-5-carboxamide] the inhibition at 0.001 µM [1] was over 50%, the inhibition at 0.01 µM [1] was over 50% and the inhibition at 0.001 µM [2] was over 50%. It also gave an inhibition at 0.01 µM [2] of over 50%, an IC50 [3] of under 20 nM and an inhibition at 0.01 µM [4] of over 50%. The inhibition at 0.001 µM [5] was over 50%, the inhibition at 0.01 µM [5] was over 50% and the inhibition at 0.001 µM [6] was over 50%. It also gave an inhibition at 0.01 µM [6] of over 50%, an inhibition at 0.001 µM [7] of over 50% and an inhibition at 0.01 µM [7] of over 50%. It also gave an inhibition at 0.001 µM [8] of over 50%, an inhibition at 0.01 µM [8] of over 50% and an inhibition at 0.001 µM [9] of over 50%. The inhibition at 0.01 µM [9] was over 50%, the inhibition at 0.001 µM [10] was over 50% and the inhibition at 0.01 µM [10] was over 50%. For the same molecule, the inhibition at 0.001 µM ([11]; at 1 nM) was over 50%, the inhibition at 0.01 µM [11] was over 50% and the inhibition at 0.001 µM ([12]; at 1 nM) was over 50%. For the same molecule, the inhibition at 0.01 µM [12] was over 50%, the inhibition at 0.001 µM [13] was over 50% and the inhibition at 0.01 µM [13] was over 50%. The inhibition at 0.001 µM [14] was over 50%, the inhibition at 0.01 µM [14] was over 50% and the inhibition at 0.001 µM [15] was over 50%. It also gave an inhibition at 0.01 µM [15] of over 50%.

With [2H]c1cc(C)c(NC(=O)c2cnc(Nc3cc(N4CCC(O)CC4)nc(C)n3)s2)c(Cl)c1 [Compound II, N-(2-chloro-4-deuterio-6-methyl-phenyl)-2-[[6-(4-hydroxy-1-piperidyl)-2-methyl-pyrimidin-4-yl]amino]thiazole-5-carboxamide] the inhibition at 0.001 µM [1] was over 50%, the inhibition at 0.01 µM [1] was over 50% and the inhibition at 0.001 µM [2] was over 50%. It also gave an inhibition at 0.01 µM [2] of over 50%, an IC50 [3] of under 20 nM and an inhibition at 0.001 µM ([4]; at 1 nM) of under 50%. It also gave an inhibition at 0.01 µM [4] of over 50%, an inhibition at 0.1 µM ([4]; at 100 nM) of under 50% and an inhibition at 0.001 µM [5] of over 50%. The inhibition at 0.01 µM [5] was over 50%, the inhibition at 0.001 µM [6] was over 50% and the inhibition at 0.01 µM [6] was over 50%. It also gave an inhibition at 0.001 µM [7] of over 50%, an inhibition at 0.01 µM [7] of over 50% and an inhibition at 0.001 µM [8] of over 50%. The inhibition at 0.01 µM [8] was over 50%, the inhibition at 0.001 µM [9] was under 50% and the inhibition at 0.01 µM [9] was over 50%. For the same molecule, the inhibition at 0.1 µM ([9]; at 100 nM) was over 50%, the inhibition at 0.001 µM [10] was over 50% and the inhibition at 0.01 µM [10] was over 50%. It also gave an inhibition at 0.01 µM [11] of over 50%, an inhibition at 0.01 µM [12] of over 50% and an inhibition at 0.001 µM [13] of over 50%. It also gave an inhibition at 0.01 µM [13] of over 50%, an inhibition at 0.001 µM [14] of over 50% and an inhibition at 0.01 µM [14] of over 50%. For the same molecule, the inhibition at 0.001 µM [15] was over 50% and the inhibition at 0.01 µM [15] was over 50%.
